Source: ChEMBL document CHEMBL3232742, “Design, synthesis and evaluation of a cellular stable and detectable biotinylated fumagillin probe and investigation of cell permeability of fumagillin and its analogs to endothelial and cancer cells” (Eur J Med Chem, 2013)
Active and inactive are the calls of the source. The rule behind the calls is not given here.

Legend:
HUVEC [1] = test: Antiproliferative against HUVEC cells assessed as cell viability after 96 hrs by MTT assay; assay type: functional, cell-based; conditions: Homo sapiens
A549 = test: Antiproliferative against human A549 cells assessed as cell viability up to 1000 nM after 96 hrs by MTT assay; assay type: functional
[2] = Antiproliferative against human Bel7402 cells assessed as cell viability up to 1000 nM after 96 hrs by MTT assay; assay type: functional, Bel-7402
HepG2 [3] = test: Antiproliferative against human HepG2 cells assessed as cell viability up to 1000 nM after 96 hrs by MTT assay; assay type: functional
MCF7 = test: Antiproliferative against human MCF7 cells assessed as cell viability up to 1000 nM after 96 hrs by MTT assay; assay type: functional
[4] = target: Methionine aminopeptidase 2 (Homo sapiens) (UniProt P50579); test: Binding affinity to MetAP2 in HUVEC at 0.1 uM by Western blotting analysis
Methionine aminopeptidase 2 (Homo sapiens), sequence (P50579 2-478 limits assumed): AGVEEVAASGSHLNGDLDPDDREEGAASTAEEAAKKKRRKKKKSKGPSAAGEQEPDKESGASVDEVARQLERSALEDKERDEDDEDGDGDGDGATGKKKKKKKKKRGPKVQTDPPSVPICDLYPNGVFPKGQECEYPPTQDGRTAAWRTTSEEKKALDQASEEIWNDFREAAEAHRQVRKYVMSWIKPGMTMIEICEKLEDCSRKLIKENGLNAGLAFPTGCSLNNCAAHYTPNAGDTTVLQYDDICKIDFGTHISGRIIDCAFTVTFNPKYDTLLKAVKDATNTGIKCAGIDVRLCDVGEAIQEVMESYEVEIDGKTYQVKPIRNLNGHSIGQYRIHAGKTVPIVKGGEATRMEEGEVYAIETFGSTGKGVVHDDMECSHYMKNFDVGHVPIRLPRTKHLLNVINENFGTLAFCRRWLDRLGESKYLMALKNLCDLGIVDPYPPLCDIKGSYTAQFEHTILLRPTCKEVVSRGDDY

[5] = target: Methionine aminopeptidase 2 (Homo sapiens) (UniProt P50579); test: Binding affinity to MetAP2 in fumagillin-pretreated HUVEC at 0.1 uM by Western blotting analysis
[6] = target: Methionine aminopeptidase 2 (Homo sapiens) (UniProt P50579); test: Binding affinity to MetAP2 in compound pre-treated HUVEC at 0.1 uM after 48 hrs by Western blotting analysis
[7] = Antiproliferative against human Bel7402 cells assessed as cell viability after 96 hrs by MTT assay; assay type: functional, cell-based; conditions: Bel-7402, 96 h
HepG2 [8] = test: Antiproliferative against human HepG2 cells assessed as cell viability after 96 hrs by MTT assay; assay type: functional, cell-based; conditions: HepG2, 96 h
HepG2 [9] = test: Stability in human HepG2 assessed as compound bound MetAP2 level at 0.1 uM by Western blotting analysis; assay type: ADME, cell-based; conditions: hepg2, 0.1 µM
HUVEC [10] = test: Stability in HUVEC assessed as compound bound MetAP2 level at 0.1 uM by Western blotting analysis; assay type: ADME, cell-based; conditions: human

| SMILES | IC50 (HUVEC [1]) [nM] | inhibition (INH) (A549) [%] | inhibition (INH) [2] [%] | inhibition (INH) (HepG2 [3]) [%] | inhibition (INH) (MCF7) [%] | Activity [4] | Activity [5] | Activity [6] | IC50 [7] [nM] | IC50 (HepG2 [8]) [nM] | Stability (HepG2 [9]) | Stability (HUVEC [10]) |
| --- | --- | --- | --- | --- | --- | --- | --- | --- | --- | --- | --- | --- |
| CO[C@@H]1[C@H](OC(=O)NCCCCCCCCNC(=O)CCCC[C@@H]2SC[C@@H]3NC(=O)N[C@@H]32)CC[C@]2(CO2)[C@H]1[C@@]1(C)O[C@@H]1CC=C(C)C | 9.8 | <50 | <50 | <50 | <50 | Active | inactive | inactive | – | – | – | – |
| COc1cccc2c1C(=O)c1c(O)c3c(c(O)c1C2=O)C[C@@](O)(C(=O)CO)C[C@@H]3O[C@H]1C[C@H](N)[C@H](O)[C@H](C)O1 [DOXORUBICIN] | – | – | – | – | – | – | – | – | 578 | 20.2 | – | – |
| CO[C@@H]1[C@H](OC(=O)NCCNC(=O)OCCOCCOCCOCCOCCOCCOC(=O)NCCCC[C@@H]2SC[C@@H]3NC(=O)N[C@@H]32)CC[C@]2(CO2)[C@H]1[C@@]1(C)O[C@@H]1CC=C(C)C | 60 | <50 | <50 | <50 | <50 | – | – | – | – | – | Stable | Stable |
| CO[C@@H]1[C@H](OC(=O)/C=C/C=C/C=C/C=C/C(=O)O)CC[C@]2(CO2)[C@H]1[C@@]1(C)O[C@@H]1CC=C(C)C [FUMAGILLIN] | 6.6 | <50 | <50 | <50 | <50 | – | – | – | – | – | – | – |
